Tests used:
Assay type in all cases: in vivo
[1] = test system: redroot pigweed (Amaranthus retroflexus, AMARE); experiment: Pre-emerge test, greenhouse herbicide activity screening; details: Amaranthus retroflexus, pre-emergence, 336 h, pre-emerge, phytotoxicity rating 0-100 at 14 days after application, read-out: Pre-emerge Herbicidal Activity AMARE; for pest or weed control at 63 g/ha: rate 63 g ai/ha; for pest or weed control at 250 g/ha: rate 250 g ai/ha
Procedure, shortened: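 Compounds in acetone were track-sprayed at 15-1000 g ai/ha (187 l/ha) on sandy loam pots: pre-emerge one day after seeding, post-emerge at 2-3 leaf stage with 0.25% v/v non-ionic surfactant. Phytotoxicity was rated 14 days later on a 0 (no damage) to 100 (complete death) scale.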

[2] = test system: large crabgrass (Digitaria sanguinalis, DIGSA); experiment: Post-emerge test, greenhouse herbicide activity screening; details: Digitaria sanguinalis, post-emergence, 336 h, post-emerge, phytotoxicity rating 0-100 at 14 days after application, read-out: Post-emerge Herbicidal Activity DIGSA; for pest or weed control at 63 g/ha: 63 g ai/ha; for pest or weed control at 250 g/ha: 250 g ai/ha
Procedure, shortened: (§1)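 Each test used a mechanized track sprayer delivering 187 l/ha of acetone solution at 15–1000 g ai/ha. Post-emerge foliage at 2–3 leaves was treated with added 0.25% v/v non-ionic surfactant and bottom-watered only. Injury was assessed on day 14, where 100 means total kill.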

[3] = test system: ivyleaf morningglory (Ipomoea hederacea, IPOHE); experiment: as above; details: Ipomoea, post-emergence, 336 h, post-emerge, phytotoxicity rating 0-100 at 14 days after application, read-out: Post-emerge Herbicidal Activity IPOHE; for pest or weed control at 63 g/ha: 63 g ai/ha; for pest or weed control at 250 g/ha: 250 g ai/ha
Procedure, shortened: as §1

[4] = test system: sicklepod (Cassia obtusifolia, CASOB); experiment: as above; details: Senna obtusifolia, post-emergence, 336 h, post-emerge, phytotoxicity rating 0-100 at 14 days after application, read-out: Post-emerge Herbicidal Activity CASOB; for pest or weed control at 63 g/ha: 63 g ai/ha; for pest or weed control at 250 g/ha: 250 g ai/ha
Procedure, shortened: as §1

[5] = test system: green foxtail (Setaria viridis, SETVI); experiment: as above; details: Setaria viridis, post-emergence, 336 h, post-emerge, phytotoxicity rating 0-100 at 14 days after application, read-out: Post-emerge Herbicidal Activity SETVI; for pest or weed control at 63 g/ha: 63 g ai/ha; for pest or weed control at 250 g/ha: 250 g ai/ha
Procedure, shortened: as §1

[6] = test system: lambsquarters (Chenopodium album, CHEAL); experiment: Pre-emerge test, greenhouse herbicide activity screening; details: Chenopodium album, pre-emergence, 336 h, pre-emerge, phytotoxicity rating 0-100 at 14 days after application, read-out: Pre-emerge Herbicidal Activity CHEAL; for pest or weed control at 63 g/ha: rate 63 g ai/ha; for pest or weed control at 250 g/ha: rate 250 g ai/ha
Procedure, shortened: (§2)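 Compounds in acetone were track-sprayed at 187 l/ha, 15–1000 g ai/ha, onto sandy loam pots. Pre-emerge seeds were sown one day before spraying, with surface watering afterwards. Post-emerge plants were at the 2–3 leaf stage and sprayed with 0.25% v/v non-ionic surfactant. Injury was rated 0–100 at 14 days.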

[7] = test system: large crabgrass (Digitaria sanguinalis, DIGSA); experiment: as above; details: Digitaria sanguinalis, pre-emergence, 336 h, pre-emerge, phytotoxicity rating 0-100 at 14 days after application, read-out: Pre-emerge Herbicidal Activity DIGSA; for pest or weed control at 63 g/ha: rate 63 g ai/ha; for pest or weed control at 250 g/ha: rate 250 g ai/ha
Procedure, shortened: as §2

[8] = test system: johnsongrass (Sorghum halepense, SORHA); experiment: as above; details: Sorghum halepense, pre-emergence, 336 h, pre-emerge, phytotoxicity rating 0-100 at 14 days after application, read-out: Pre-emerge Herbicidal Activity SORHA
Procedure, shortened: as §2

[9] = test system: velvetleaf (Abutilon theophrasti, ABUTH); experiment: as above; details: Abutilon theophrasti, pre-emergence, 336 h, pre-emerge, phytotoxicity rating 0-100 at 14 days after application, read-out: Pre-emerge Herbicidal Activity ABUTH; for pest or weed control at 63 g/ha: rate 63 g ai/ha; for pest or weed control at 250 g/ha: rate 250 g ai/ha
Procedure, shortened: as §2

[10] = test system: ivyleaf morningglory (Ipomoea hederacea, IPOHE); experiment: as above; details: Ipomoea, pre-emergence, 336 h, pre-emerge, phytotoxicity rating 0-100 at 14 days after application, read-out: Pre-emerge Herbicidal Activity IPOHE; for pest or weed control at 63 g/ha: rate 63 g ai/ha; for pest or weed control at 250 g/ha: rate 250 g ai/ha
Procedure, shortened: as §2

[11] = test system: barnyardgrass (Echinochloa crus-galli, ECHCG); experiment: as above; details: Echinochloa crus-galli, pre-emergence, 336 h, pre-emerge, phytotoxicity rating 0-100 at 14 days after application, read-out: Pre-emerge Herbicidal Activity ECHCG; for pest or weed control at 63 g/ha: rate 63 g ai/ha; for pest or weed control at 250 g/ha: rate 250 g ai/ha
Procedure, shortened: as §2

[12] = test system: sicklepod (Cassia obtusifolia, CASOB); experiment: as above; details: Senna obtusifolia, pre-emergence, 336 h, pre-emerge, phytotoxicity rating 0-100 at 14 days after application, read-out: Pre-emerge Herbicidal Activity CASOB; for pest or weed control at 63 g/ha: rate 63 g ai/ha; for pest or weed control at 250 g/ha: rate 250 g ai/ha
Procedure, shortened: as §2

[13] = test system: green foxtail (Setaria viridis, SETVI); experiment: as above; details: Setaria viridis, pre-emergence, 336 h, pre-emerge, phytotoxicity rating 0-100 at 14 days after application, read-out: Pre-emerge Herbicidal Activity SETVI; for pest or weed control at 63 g/ha: rate 63 g ai/ha; for pest or weed control at 250 g/ha: rate 250 g ai/ha
Procedure, shortened: as §2

How did the pest or weed control at 63 g/ha [1] turn out when `COc1c(Cl)cc(F)c(-n2nc(C)n(C(F)F)c2=O)c1NC(=O)c1ccc2ccccc2c1` [Compound 6-15] was run?
The pest or weed control at 63 g/ha was 100%.

And the pest or weed control at 250 g/ha [1]?
The pest or weed control at 250 g/ha was 100%.

And the pest or weed control at 63 g/ha [2]?
The pest or weed control at 63 g/ha was 30%.

And the pest or weed control at 250 g/ha [2]?
Its pest or weed control at 250 g/ha is 60%.

What about the pest or weed control at 63 g/ha [3] of the same molecule?
Its pest or weed control at 63 g/ha is 100%.

What about the pest or weed control at 250 g/ha [3] of the same molecule?
The pest or weed control at 250 g/ha was 100%.

What about the pest or weed control at 63 g/ha [4] of the same molecule?
The pest or weed control at 63 g/ha was 100%.

And the pest or weed control at 250 g/ha [4]?
The pest or weed control at 250 g/ha was 100%.

And the pest or weed control at 63 g/ha [5]?
The pest or weed control at 63 g/ha was 50%.

And the pest or weed control at 250 g/ha [5]?
Its pest or weed control at 250 g/ha is 85%.

And the pest or weed control at 63 g/ha [6]?
The pest or weed control at 63 g/ha was 100%.

And the pest or weed control at 250 g/ha [6]?
Its pest or weed control at 250 g/ha is 100%.

And the pest or weed control at 63 g/ha [7]?
The pest or weed control at 63 g/ha was 80%.

And the pest or weed control at 250 g/ha [7]?
The pest or weed control at 250 g/ha was 100%.

What about the pest or weed control at 63 g/ha ([8]; rate 63 g ai/ha) of the same molecule?
Its pest or weed control at 63 g/ha is 50%.

And the pest or weed control at 250 g/ha ([8]; rate 250 g ai/ha)?
The pest or weed control at 250 g/ha was 100%.

And the pest or weed control at 63 g/ha [9]?
The pest or weed control at 63 g/ha was 100%.

And the pest or weed control at 250 g/ha [9]?
Its pest or weed control at 250 g/ha is 100%.

What about the pest or weed control at 63 g/ha [10] of the same molecule?
The pest or weed control at 63 g/ha was 70%.

What about the pest or weed control at 250 g/ha [10] of the same molecule?
The pest or weed control at 250 g/ha was 40%.

And the pest or weed control at 63 g/ha [11]?
The pest or weed control at 63 g/ha was 50%.

What about the pest or weed control at 250 g/ha [11] of the same molecule?
Its pest or weed control at 250 g/ha is 80%.

And the pest or weed control at 63 g/ha [12]?
The pest or weed control at 63 g/ha was 70%.

And the pest or weed control at 250 g/ha [12]?
The pest or weed control at 250 g/ha was 80%.

And the pest or weed control at 63 g/ha [13]?
Its pest or weed control at 63 g/ha is 95%.

And the pest or weed control at 250 g/ha [13]?
The pest or weed control at 250 g/ha was 100%.

What does the source list for `COc1c(Cl)cc(Cl)c(-n2nc(C)n(C(F)F)c2=O)c1NC(=O)c1ccc2ccccc2c1` [Compound 6-17]?
pest or weed control at 63 g/ha [1]: 90%; pest or weed control at 250 g/ha [1]: 100%; pest or weed control at 63 g/ha [2]: 0%; pest or weed control at 250 g/ha [2]: 20%; pest or weed control at 63 g/ha [3]: 50%; pest or weed control at 250 g/ha [3]: 70%; pest or weed control at 63 g/ha [4]: 50%; pest or weed control at 250 g/ha [4]: 70%; pest or weed control at 63 g/ha [5]: 0%; pest or weed control at 250 g/ha [5]: 30%; pest or weed control at 63 g/ha [6]: 100%; pest or weed control at 250 g/ha [6]: 100%; pest or weed control at 63 g/ha [7]: 30%; pest or weed control at 250 g/ha [7]: 99%; pest or weed control at 63 g/ha [9]: 30%; pest or weed control at 250 g/ha [9]: 95%; pest or weed control at 63 g/ha [10]: 0%; pest or weed control at 250 g/ha [10]: 30%; pest or weed control at 63 g/ha [11]: 10%; pest or weed control at 250 g/ha [11]: 90%; pest or weed control at 63 g/ha [12]: 0%; pest or weed control at 250 g/ha [12]: 20%; pest or weed control at 63 g/ha [13]: 70%; pest or weed control at 250 g/ha [13]: 99%
